Data as given in patent US9783532B2, “Molecules having certain pesticidal utilities, and intermediates, compositions, and processes related thereto” (Dow AgroSciences LLC, priority 2013, dated 2017).

Legend:
[1] = tested on: Beet Armyworm (Spodoptera exigua) ("BAW"); assay: Bioassay on beet armyworm (BAW), 128-well diet tray assay; type: in vivo; conditions: for mortality at 50 µg/cm2: 168 h, 50 μg/cm^2 on artificial diet, second instar BAW larvae, 25° C., five to seven days, average of eight wells, read-out: BAW % Control (or Mortality) rating; for pest or weed control at 50 µg/cm2: Table ABC (PC), activity rating class, read-out: BAW (Biological Results, Insect species)
Summary of the method: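 Second-instar larvae (one to five per well) were placed on artificial diet surface-treated with 50 μg/cm^2 compound applied in 90:10 acetone-water and dried, eight wells per compound. Held at 25° C., 14:10 light-dark for five to seven days; percent mortality was scored per well and averaged over the eight wells.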

[2] = tested on: Cabbage Looper (Trichoplusia ni) ("CL"); assay: Bioassay on cabbage looper (CL), 128-well diet tray assay; type: in vivo; conditions: for mortality at 50 µg/cm2: 168 h, 50 μg/cm^2 on artificial diet, second instar CL larvae, 25° C., five to seven days, average of eight wells, read-out: CL % Control (or Mortality) rating; for pest or weed control at 50 µg/cm2: Table ABC (PC), activity rating class, read-out: CL (Biological Results, Insect species)
Summary of the method: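 Second-instar larvae (one to five per well) placed on artificial diet surface-treated with 50 μg/cm^2 compound in 90:10 acetone-water, dried before infestation. Held 25 °C, 14:10 light-dark for five to seven days; percent mortality scored per well and averaged over eight wells.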

Row | Structure (SMILES) | mortality at 50 µg/cm2 [1] [%] | mortality at 50 µg/cm2 [2] [%] | pest or weed control at 50 µg/cm2 [1] [%] | pest or weed control at 50 µg/cm2 [2] [%]
1 | Cc1ccc(C(C)C)c(N2C(=O)CS/C2=N\C(=O)NCCCCc2cccc(-c3ncn(-c4ccc(OC(F)(F)F)cc4)n3)c2)c1 [P176, (Z)-1-(3-(2-isopropyl-5-methylphenyl)-4-oxothiazolidin-2-ylidene)-3-(4-(3-(1-(4-(trifluoromethoxy)phenyl)-1H-1,2,4-triazol-3-yl)phenyl)butyl)urea] | 50 to 100 | 50 to 100 | – | –
2 | CCc1cccc(C)c1N1C(=O)CS/C1=N\C(=O)NCCCCc1cccc(-c2ncn(-c3ccc(OC(F)(F)F)cc3)n2)c1 [P179, (Z)-1-(3-(2-ethyl-6-methylphenyl)-4-oxothiazolidin-2-ylidene)-3-(4-(3-(1-(4-(trifluoromethoxy)phenyl)-1H-1,2,4-triazol-3-yl)phenyl)butyl)urea] | 0 | 0 | – | –
3 | Cc1ccc(N2C(=O)CS/C2=N\C(=O)NCCCCc2cccc(-c3ncn(-c4ccc(OC(F)(F)F)cc4)n3)c2)c(C(C)C)c1 [P180, (Z)-1-(3-(2-isopropyl-4-methylphenyl)-4-oxothiazolidin-2-ylidene)-3-(4-(3-(1-(4-(trifluoromethoxy)phenyl)-1H-1,2,4-triazol-3-yl)phenyl)butyl)urea] | 0 | 50 to 100 | – | –
4 | CC(C)c1cc(F)ccc1N1C(=O)CS/C1=N\C(=O)NCCCCc1cccc(-c2ncn(-c3ccc(OC(F)(F)F)cc3)n2)c1 [P181] | 50 to 100 | 50 to 100 | – | –
5 | COc1ccc(C(C)C)c(N2C(=O)CS/C2=N\C(=O)NCCCCc2cccc(-c3ncn(-c4ccc(OC(F)(F)F)cc4)n3)c2)c1 [P182, (Z)-1-(3-(2-isopropyl-5-methoxyphenyl)-4-oxothiazolidin-2-ylidene)-3-(4-(3-(1-(4-(trifluoromethoxy)phenyl)-1H-1,2,4-triazol-3-yl)phenyl)butyl)urea] | 50 to 100 | 50 to 100 | – | –
6 | CCC(CNC(=O)/N=C1\SCC(=O)N1c1cc(C)ccc1C(C)C)c1ccc(-c2ncn(-c3ccc(OC(F)(F)F)cc3)n2)cc1 (stereo not shown) [P364, (Z)-1-(3-(2-isopropyl-5-methylphenyl)-4-oxothiazolidin-2-ylidene)-3-(2-(4-(1-(4-(trifluoromethoxy)phenyl)-1H-1,2,4-triazol-3-yl)phenyl)butyl)urea] | 50 to 100 | 50 to 100 | – | –
7 | Cc1ccccc1NC(=S)NC(=O)NCc1ccc(-c2ncn(-c3ccc(OC(F)(F)F)cc3)n2)cc1 [PC1, 1-(o-tolylcarbamothioyl)-3-[[4-[1-[4-(trifluoromethoxy)phenyl]-1H-1,2,4-triazol-3-yl]phenyl]methyl]urea] | – | – | 50 to 100 | 50 to 100
8 | CC(C)c1cc(F)ccc1NC(=S)NC(=O)NCc1ccc(-c2ncn(-c3ccc(OC(F)(F)F)cc3)n2)cc1 [PC3, 1-[(4-fluoro-2-isopropyl-phenyl)carbamothioyl]-3-[[4-[1-[4-(trifluoromethoxy)phenyl]-1H-1,2,4-triazol-3-yl]phenyl]methyl]urea] | – | – | 50 to 100 | 50 to 100
9 | Cc1ccc(NC(=S)NC(=O)NCc2ccc(-c3ncn(-c4ccc(OC(F)(F)F)cc4)n3)cc2)c(C(C)C)c1 [PC5, 1-[(2-isopropyl-4-methyl-phenyl)carbamothioyl]-3-[[4-[1-[4-(trifluoromethoxy)phenyl]-1H-1,2,4-triazol-3-yl]phenyl]methyl]urea] | – | – | 50 to 100 | 50 to 100
10 | CCc1ccc(C)cc1NC(=S)NC(=O)NCc1ccc(-c2ncn(-c3ccc(OC(F)(F)F)cc3)n2)cc1 [PC7] | – | – | 50 to 100 | 50 to 100
11 | CCCc1ccc(C)cc1NC(=S)NC(=O)NCc1ccc(-c2ncn(-c3ccc(OC(F)(F)F)cc3)n2)cc1 [PC8, 1-[(5-methyl-2-propyl-phenyl)carbamothioyl]-3-[[4-[1-[4-(trifluoromethoxy)phenyl]-1H-1,2,4-triazol-3-yl]phenyl]methyl]urea] | – | – | 50 to 100 | 50 to 100
12 | Cc1ccc(NC(=S)NC(=O)NCc2ccc(-c3ncn(-c4ccc(C(F)(F)F)cc4)n3)cc2)c(C(C)C)c1 [PC15, 1-[(2-isopropyl-4-methyl-phenyl)carbamothioyl]-3-[[4-[1-[4-(trifluoromethyl)phenyl]-1,2,4-triazol-3-yl]phenyl]methyl]urea] | – | – | 50 to 100 | 50 to 100
13 | Cc1ccccc1NC(=S)NC(=O)NCCc1cccc(-c2ncn(-c3ccc(OC(F)(F)F)cc3)n2)c1 [PC74, 1-(o-tolylcarbamothioyl)-3-[2-[3-[1-[4-(trifluoromethoxy)phenyl]-1H-1,2,4-triazol-3-yl]phenyl]ethyl]urea] | – | – | 50 to 100 | 50 to 100
14 | CCc1cccc(C)c1NC(=S)NC(=O)NCCc1cccc(-c2ncn(-c3ccc(OC(F)(F)F)cc3)n2)c1 [PC83, 1-[(2-ethyl-6-methyl-phenyl)carbamothioyl]-3-[2-[3-[1-[4-(trifluoromethoxy)phenyl]-1H-1,2,4-triazol-3-yl]phenyl]ethyl]urea] | – | – | 50 to 100 | 50 to 100
15 | Cc1ccccc1NC(=S)NC(=O)NCCCc1ccc(-c2ncn(-c3ccc(OC(F)(F)F)cc3)n2)cc1 [PC92, 1-(o-tolylcarbamothioyl)-3-[3-[4-[1-[4-(trifluoromethoxy)phenyl]-1H-1,2,4-triazol-3-yl]phenyl]propyl]urea] | – | – | 50 to 100 | 50 to 100
16 | CCc1ccccc1NC(=S)NC(=O)NCCCc1ccc(-c2ncn(-c3ccc(OC(F)(F)F)cc3)n2)cc1 [PC93, 1-[(2-ethylphenyl)carbamothioyl]-3-[3-[4-[1-[4-(trifluoromethoxy)phenyl]-1H-1,2,4-triazol-3-yl]phenyl]propyl]urea] | – | – | 50 to 100 | 50 to 100
17 | CC(C)c1ccccc1NC(=S)NC(=O)NCCCc1ccc(-c2ncn(-c3ccc(OC(F)(F)F)cc3)n2)cc1 [PC94, 1-[(2-isopropylphenyl)carbamothioyl]-3-[3-[4-[1-[4-(trifluoromethoxy)phenyl]-1H-1,2,4-triazol-3-yl]phenyl]propyl]urea] | – | – | 50 to 100 | 50 to 100
18 | CCc1cccc(C)c1NC(=S)NC(=O)NCCCc1ccc(-c2ncn(-c3ccc(OC(F)(F)F)cc3)n2)cc1 [PC101, 1-[(2-ethyl-6-methyl-phenyl)carbamothioyl]-3-[3-[4-[1-[4-(trifluoromethoxy)phenyl]-1H-1,2,4-triazol-3-yl]phenyl]propyl]urea] | – | – | 50 to 100 | 50 to 100
19 | CCc1ccccc1NC(=S)NC(=O)NCCCc1cccc(-c2ncn(-c3ccc(OC(F)(F)F)cc3)n2)c1 [PC119, 1-[(2-ethylphenyl)carbamothioyl]-3-[3-[3-[1-[4-(trifluoromethoxy)phenyl]-1H-1,2,4-triazol-3-yl]phenyl]propyl]urea] | – | – | 50 to 100 | 50 to 100
20 | CC(C)c1ccccc1NC(=S)NC(=O)NCCCc1cccc(-c2ncn(-c3ccc(OC(F)(F)F)cc3)n2)c1 [PC120, 1-[(2-isopropylphenyl)carbamothioyl]-3-[3-[3-[1-[4-(trifluoromethoxy)phenyl]-1H-1,2,4-triazol-3-yl]phenyl]propyl]urea] | – | – | 50 to 100 | 50 to 100
21 | Cc1ccc(C(C)C)c(NC(=S)NC(=O)NCCCc2cccc(-c3ncn(-c4ccc(OC(F)(F)F)cc4)n3)c2)c1 [PC124, 1-[(2-isopropyl-5-methyl-phenyl)carbamothioyl]-3-[3-[3-[1-[4-(trifluoromethoxy)phenyl]-1H-1,2,4-triazol-3-yl]phenyl]propyl]urea] | – | – | 50 to 100 | 50 to 100
22 | CCCc1ccc(C)cc1NC(=S)NC(=O)NCCCc1cccc(-c2ncn(-c3ccc(OC(F)(F)F)cc3)n2)c1 [PC125, 1-[(5-methyl-2-propyl-phenyl)carbamothioyl]-3-[3-[3-[1-[4-(trifluoromethoxy)phenyl]-1H-1,2,4-triazol-3-yl]phenyl]propyl]urea] | – | – | 50 to 100 | 50 to 100
23 | CCc1cccc(C)c1NC(=S)NC(=O)NCCCc1cccc(-c2ncn(-c3ccc(OC(F)(F)F)cc3)n2)c1 [PC127, 1-[(2-ethyl-6-methyl-phenyl)carbamothioyl]-3-[3-[3-[1-[4-(trifluoromethoxy)phenyl]-1H-1,2,4-triazol-3-yl]phenyl]propyl]urea] | – | – | 50 to 100 | 50 to 100
24 | Cc1ccc(NC(=S)NC(=O)NCCCc2cccc(-c3ncn(-c4ccc(OC(F)(F)F)cc4)n3)c2)c(C(C)C)c1 [PC128, 1-[(2-isopropyl-4-methyl-phenyl)carbamothioyl]-3-[3-[3-[1-[4-(trifluoromethoxy)phenyl]-1H-1,2,4-triazol-3-yl]phenyl]propyl]urea] | – | – | 50 to 100 | 50 to 100
25 | CC(C)c1cc(F)ccc1NC(=S)NC(=O)NCCCc1cccc(-c2ncn(-c3ccc(OC(F)(F)F)cc3)n2)c1 [PC129, 1-[(4-fluoro-2-isopropyl-phenyl)carbamothioyl]-3-[3-[3-[1-[4-(trifluoromethoxy)phenyl]-1H-1,2,4-triazol-3-yl]phenyl]propyl]urea] | – | – | 50 to 100 | 50 to 100
26 | COc1ccc(NC(=S)NC(=O)NCCCc2cccc(-c3ncn(-c4ccc(OC(F)(F)F)cc4)n3)c2)c(C)c1 [PC131, 1-[(4-methoxy-2-methyl-phenyl)carbamothioyl]-3-[3-[3-[1-[4-(trifluoromethoxy)phenyl]-1H-1,2,4-triazol-3-yl]phenyl]propyl]urea] | – | – | 50 to 100 | 50 to 100
